Reference: patent publication US8680129B2, “Compounds, composition, methods, targets for cancer therapy” (priority 2008, dated 2014)
Several values for one entry are separate records, joined by “and”; a condition that tells them apart may be missing. Identical values can stand only once. Like-named read-outs stand apart in the source and are kept apart here.

Tests used:
UM-SCC6 cells [1] = assay: WST-3 with or without mPMS plus apigenin, cell viability; format: cell-based, human; conditions: 30 μM mPMS added to 0.1 mM WST-3 and 30 μM apigenin
Method: (§1) Method: UM-SCC6, HT1080, Cal127, SK-Mel-5, and HEKa cells were treated with 0.1 mM WST-3 plus 30 μM mPMS, or WST-3 only, or untreated control in combination with 10 or 30 μM apigenin for 4 hours and, then, changed to normal growth medium and remained culture in this medium for another 24 hours. After the 24 hours culture, cell viabilities were measured with CCK8 Kit. Data were normalized to % of untreated control cells.

Cal27 cells = assay: as above; format: cell-based, human; conditions: 30 μM mPMS added to 0.1 mM WST-3 and 30 μM apigenin
Method: as §1

HT1080 cells [2] = assay: mPMS dose-response with WST-1c and apigenin, cell viability; format: cell-based, human; conditions: mPMS variable with 1 mM WST-1c and 10, 30 or 100 μM apigenin
Method: (§2) Method: A & B: HT1080 (FIG. 16A) and UM-SCC6 (FIG. 16B) cells were treated with variable concentrations of mPMS as indicated in combination with 1 mM WST-1c and 10, 30 or 100 μM apigenin for 4 hours and, then, changed to normal growth medium for another 24 hours. Cell viabilities were measured by CCK8 Kit. 1 mM WST-1 only, 0.12 mM mPMS only and 10% WST-1r were used as parallel control. AP 0: Untreated Control, AP 10: 10 μM Apigenin, AP 30: 30 μM Apigenin, AP 100: 100 μM Apigenin.

UM-SCC6 cells [3] = assay: as above; format: cell-based, human; conditions: for IC50: read-out: mPMS1050
Method: as §2

[4] = tested on: HEKa, SK-Mel-5, Cal27, UM-SCC6 and HT1080 cells; assay: Differential cellular responses to mPMS, cell viability, all lines; format: cell-based, human; conditions: 30, 40 or 50 μM mPMS 4 hours, then 24 hours
Method: (§3) Non cancer human keratinocyte (HEKa), SK-Mel-5 human malonoma cell line (SK5), human head and neck cancer cell Cal27 line (Cal27) and UM-SCC6 line (SCC6) cells and human soft tissue sarcoma cell line HT1080 (HT1080) were treated with 30, 40 or 50 μM mPMS for 4 hours and then cultured in normal growth medium for another 24 hours. Cell viabilities were measured with CCK8 kit.

[5] = tested on: non cancer human keratinocyte (HEKa); assay: Differential cellular responses to mPMS, cell viability; format: cell-based
Method: as §3

[6] = tested on: Cal27, UM-SCC6 and HT1080 cells; assay: as above; format: cell-based, human; conditions: Cal27, UM-SCC6 and HT1080 cells 'respectively', only two values printed; read-out: 1050 of mPMS
Method: as §3

HT1080 cells [7] = assay: siRNA or Puc19 transfection, IKK inhibitor III and WST-1r triple combination, CCK8; format: cell-based, human; conditions: IKK inhibitor 24 hours, then WST-1r 4 hour
Method: Method: HT1080 cells were transfected with siRNA#3, or the siRNA targeting MAGI3, and TMEM182 that were derived from Puc19 DNA sequence and the siRNAs that targeting the corresponding genes that are the targets of the Puc19 derived siRNAs for 24 hours, then, treated with IKK inhibitor III for 24 hours followed by adding WST-1r for another 4 hour. After the 4 hours WST-1r treatment, cells in culture were changed to normal growth medium for 24 hours. Cell viability were monitored by CCK8 Kit every 24 hours. Data were normalized to % of untreated control cells. AllStar siRNA was used as negative siRNA trasnfection control. Puc19 DNA vector transfection was used as positive control.
Data label: Untreated control: 0 Ctrl, WST-1r only: 10 Ctrl, pUC19 transfected cells: 0 p9, pUC19 transfected and WST-1r treated: 10 p9, AllStar negative contrl siRNA transfected: 0 AllStar, AllStar transfected and WST-1r treated: 10 AllStar, siRNA#3 transfected: 0 siRNA#3, siRNA#3 transfcted and WST-1r treated: 10 siRNA#3, siRNAMAGI3 transfected: 0 MAGI3, siRNA MAGI3 transfcted and WST-1r treated: 10 MAGI3, siRNATMEM182 transfected: 0 TMEM182, siRNATMEM182 transfcted and WST-1r treated: 10 TMEM182,

[8] = tested on: SK-Mel-5 human melanoma cells; assay: WST-1r then IKK inhibitor III, cell viability by CCK8; format: cell-based; conditions: WST-1r 1% and 3% 4 hours, then BMS345541 3 and 10 μM 24 hours; combination 3% WST-1r and 10 μM BMS345541
Method: (§4) Method: SK-Mel-5 and T294 human melanoma cells were treated with WST-1r at 1% and 3% final concentration respectively as indicated for 4 hours, then, removed WST-1r by changing to normal growth medium and added IKK inhibitor III for another 24 hours. After 24 hours treatment with 3 μM and 10 μM IKK inhibitor III respectively as indicated, cells were changed to grow in normal growth medium for 48 hours before measuring cell viability by CCK8 Kit.

[9] = tested on: T294 human melanoma cells; assay: as above; format: cell-based; conditions: WST-1r 1% and 3% 4 hours, then BMS345541 3 and 10 μM 24 hours; combination 3% WST-1r and 10 μM BMS345541
Method: as §4

[10] = tested on: ROS generation in UM-SCC6 cells; assay: Dose response of ROS generation (CM-H2-DCFDA fluorescence); format: cell-based, human
Method: Method: UM-SCC6 cells were labeled with 10 μM CM-H2-DCFDA for 15 minutes and then treated with WST-1r or CCK8 at the indicated amounts in combination with variable doses of apigenin (A) or IKK Inhibitor III (B) for 4 hours. Fluorescence at Ex485/Em535 were measured for detecting ROS generation that labeled by the CM-H2-DCFDA.

[11] = tested on: ROS generation in HT1080 cells; assay: ROS labeling with CM-H2-DCFDA (imaging); format: cell-based, human; conditions: cells transfected with pUC19, no exposure to WST-1
Method: Methods: HT1080 cells were cultured in cover slices and transfected with pUC19 and treated with IKK inhibitor III in sequential. Following these treatment, the cells, thus, treated, were either labeled with CM-H2-DCFDA, a fluorescence dye that can labeling ROS in cells, and, then, treated with WST-1 for 30 minutes (FIG. 23A) or treated with WST-1 for 2 hours and then labeled with CM-H2-DCFDA (FIG. 23-B). The results were recorded by a digital camera with Spotlight software. Manuel exposure levels were used to maintain the same exposure level for comparison.

HT1080 cells [12] = assay: DNA transfection, IKK inhibitor III and WST-1 combination, cell viability by CCK8; format: cell-based, human
Method: Methods: HT1080 cells were cultured in 96 well plates and transfected with one of the pUC19, pcDNA3, IKK1-KA, IKK1-KA+PUC19, or pcDNA3+pUC19 DNA vectors for 24 hours followed with treatment of IKK Inhibitor IIII at 3-30 μM for another 24 hours and, then, treated with 10% WST-1 for 4 hours and cultured overnight before detection. The same treatments of cells were measured at 24, 48 and 96 hours after WST-1 treatment. Cell viability was measured by Cell Count Kit 8 (CCK8).

Compound	effect of adding mPMS on cell death (UM-SCC6 cells [1])	effect of adding mPMS on cell death (Cal27 cells)	cell death (HT1080 cells [2])	IC50 (UM-SCC6 cells [3]; combination of apigenin 100 μM and mPMS+WST-1)	cell death (UM-SCC6 cells [3]; mPMS variable with 1 mM WST-1c and 10, 30 or 100 μM apigenin)	IC50 (UM-SCC6 cells [3]; untreated control cells (no apigenin))	cell death and sensitivity to mPMS [4]	sensitivity to mPMS treatment ([5]; compared with the cancer cell lines)	IC50 ([5]; mPMS 4 hours, then 24 hours)	IC50 [6]	cell death (HT1080 cells [7])	cell death [8]	cell death [9]	ROS levels ([10]; 5 μM IKK Inhibitor, alone and with WST-1r)	ROS levels ([10]; 10 μM IKK Inhibitor III, alone and with WST-1r)	ROS levels ([10]; IKK Inhibitor III combined with CCK8)	labeled ROS [11]	cell death by morphology examination (HT1080 cells [12]; 30 μM, 24 hours after the WST-1 treatment)	induction of cell death (HT1080 cells [12]; cells transfected with any of the DNA vectors, IKK inhibitor III 3-30 μM, 24, 48 and 96 hour after WST-1 treatment, vs non transfected control)
1-methoxy-5-methyl-phenazinium methyl sulfate [mPMS]	further synergize the cell death	further synergize the cell death	dose dependent cell death	30 µM	dose dependent cell death	80 µM	mPMS dose dependent cell death and differential sensitivities to mPMS treatment	least sensitivity to mPMS treatment	50 µM	20 µM and 30 µM	–	–	–	–	–	–	–	–	–
Cc1ccc2nc(NCCN)c3ncc(C)n3c2c1 [IKK inhibitor III]	–	–	–	–	–	–	–	–	–	–	dose dependent cell death	dose dependent increase of cell deaths	dose dependent increase of cell deaths	increased ROS levels	decreased it	no combined effect with CCK8 on ROS levels	IKK inhibitor III dose dependent labeled ROS	majority of the 30 μM IIKK inhibitor III treated cells died	significant IKK inhibitor III dose dependent induction of cell death
